Assay results: PubChem BioAssay (NCI)
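Interpolation was linear, between the two tested concentrations surrounding the appropriate level; five concentrations were tested over 48 hours in 96-well plates. TGI: concentration producing complete growth inhibition.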

What was measured:
Experiment in all cases: NCI anticancer screen, dose series, 48 h
[1] = system: M14 melanoma
[2] = system: HOP-18 NSCLC
[3] = system: SNB-78 CNS
[4] = system: K-562 leukemia
[5] = system: DMS 273 small cell lung
[6] = system: HL-60(TB) leukemia
[7] = system: LXFL 529 NSCLC
[8] = system: M19-MEL melanoma
[9] = system: DLD-1 colon
[10] = system: OVCAR-4 ovarian
[11] = system: DMS 114 small cell lung
[12] = system: EKVX NSCLC
[13] = system: KM20L2 colon
[14] = system: XF 498 CNS
[15] = system: NCI-H226 lung
[16] = system: RXF-631 renal

C=CCN(C)CN(C)c1nc(N(C)C)nc(N(C)C)n1
TGI [1]: > 100 µM
TGI [2]: > 100 µM
TGI [3]: > 100 µM
TGI [4]: > 100 µM
TGI [5]: > 100 µM
TGI [6]: 48.7 µM
TGI [7]: 89 µM
TGI [8]: > 100 µM
TGI [9]: > 100 µM
TGI [10]: > 100 µM
TGI [11]: 42.7 µM
TGI [12]: > 100 µM
TGI [13]: > 100 µM

CCOC(=O)c1ccc(-n2c(SCC)nc3sc(C)c(C)c3c2=O)cc1
TGI [1]: > 100 µM
TGI [2]: > 100 µM
TGI [3]: > 100 µM
TGI [4]: > 100 µM
TGI [5]: > 100 µM
TGI [6]: > 100 µM
TGI [14]: > 100 µM
TGI [9]: > 100 µM
TGI [10]: > 100 µM
TGI [11]: > 100 µM
TGI [12]: > 100 µM
TGI [15]: > 100 µM
TGI [13]: > 100 µM

O=c1cc(-c2ccccc2)oc2cc(OCCSCCCCCCCCCCSCCOc3ccc4c(=O)cc(-c5ccccc5)oc4c3)ccc12
TGI [16]: > 100 µM
TGI [1]: > 100 µM
TGI [2]: > 100 µM
TGI [3]: > 100 µM
TGI [4]: > 100 µM
TGI [6]: > 100 µM
TGI [7]: > 100 µM
TGI [8]: > 100 µM
TGI [9]: > 100 µM
TGI [11]: > 100 µM
TGI [12]: > 100 µM
TGI [13]: > 100 µM

COc1cc(/C=C2/C(=O)N(C(=O)c3ccc(Cl)cc3)N=C2C)cc(OC)c1OC
TGI [1]: > 100 µM
TGI [3]: > 100 µM
TGI [4]: > 100 µM
TGI [6]: > 100 µM
TGI [7]: > 100 µM
TGI [8]: > 100 µM
TGI [14]: > 100 µM
TGI [9]: > 100 µM
TGI [10]: > 100 µM
TGI [12]: > 100 µM
TGI [13]: > 100 µM

Cc1ccc(O)c(C(=O)CCCC(=O)c2cc(C)ccc2O)c1
TGI [1]: > 100 µM
TGI [2]: > 100 µM
TGI [3]: > 100 µM
TGI [4]: > 100 µM
TGI [5]: > 100 µM
TGI [6]: > 100 µM
TGI [7]: > 100 µM
TGI [8]: > 100 µM
TGI [14]: > 100 µM
TGI [9]: > 100 µM
TGI [10]: > 100 µM
TGI [11]: > 100 µM
TGI [12]: > 100 µM
TGI [15]: > 100 µM
TGI [13]: > 100 µM

COc1cc2c(cc1OC)C(=O)C(C1=C(SC(=N)N)C(=O)c3cc(OC)c(OC)cc31)C2 (stereo not given)
TGI [1]: > 100 µM
TGI [3]: > 100 µM
TGI [4]: > 100 µM
TGI [5]: > 100 µM
TGI [7]: > 100 µM
TGI [8]: > 100 µM
TGI [14]: > 100 µM
TGI [9]: > 100 µM
TGI [10]: > 100 µM
TGI [11]: > 100 µM
TGI [12]: > 100 µM
TGI [15]: > 100 µM
TGI [13]: > 100 µM

Cn1ncnc1CCc1ccccc1
TGI [1]: > 100 µM
TGI [2]: > 100 µM
TGI [3]: > 100 µM
TGI [4]: > 100 µM
TGI [5]: > 100 µM
TGI [6]: > 100 µM
TGI [7]: > 100 µM
TGI [8]: > 100 µM
TGI [10]: > 100 µM
TGI [11]: > 100 µM
TGI [15]: > 100 µM
TGI [13]: > 100 µM

O=c1cc(-c2ccc(Cl)cc2)oc2cc(OCCCOc3ccc4c(=O)cc(-c5ccc(Cl)cc5)oc4c3)ccc12
TGI [16]: > 100 µM
TGI [1]: > 100 µM
TGI [2]: > 100 µM
TGI [3]: > 100 µM
TGI [4]: > 100 µM
TGI [5]: > 100 µM
TGI [6]: > 100 µM
TGI [7]: > 100 µM
TGI [8]: > 100 µM
TGI [14]: > 100 µM
TGI [9]: > 100 µM
TGI [10]: > 100 µM
TGI [11]: > 100 µM
TGI [12]: > 100 µM
TGI [15]: > 100 µM
TGI [13]: > 100 µM

CSc1nc2[nH]c(=O)c(C)nc2c(=O)[nH]1
TGI [1]: > 100 µM
TGI [4]: > 100 µM
TGI [5]: > 100 µM
TGI [6]: > 100 µM
TGI [7]: > 100 µM
TGI [8]: > 100 µM
TGI [14]: > 100 µM
TGI [9]: > 100 µM
TGI [10]: > 100 µM
TGI [11]: > 100 µM
TGI [12]: > 100 µM
TGI [13]: > 100 µM

CC(=O)Nc1ccc(C(=O)NN2C(=O)C(Cl)C2c2ccccc2O)cc1 (stereo not given)
TGI [1]: > 100 µM
TGI [4]: > 100 µM
TGI [5]: > 100 µM
TGI [6]: > 100 µM
TGI [7]: > 100 µM
TGI [14]: > 100 µM
TGI [9]: > 100 µM
TGI [10]: > 100 µM
TGI [12]: > 100 µM
TGI [15]: > 100 µM
TGI [13]: > 100 µM

COC(=O)[C@@]12OC[C@]34C([C@@H](O)C1O)[C@@]1(C)CC(=O)C(OC(=O)/C=C(/c5ccccc5)C(F)(F)F)=C(C)C1C[C@H]3OC(=O)[C@H](O)[C@H]42 (stereo not given in full)
TGI [1]: 36.9 µM
TGI [2]: > 50 µM
TGI [3]: > 50 µM
TGI [4]: > 50 µM
TGI [5]: 18 µM
TGI [6]: 2.97 µM
TGI [7]: > 50 µM
TGI [8]: > 50 µM
TGI [14]: 33 µM
TGI [9]: 31.9 µM
TGI [10]: > 50 µM
TGI [11]: 22.3 µM
TGI [12]: > 50 µM
TGI [15]: 29.5 µM
TGI [13]: 36.6 µM

CC(C)C(/C=C/c1ccc(Br)cc1)=N\NC(N)=O
TGI [1]: > 100 µM
TGI [3]: > 100 µM
TGI [4]: > 100 µM
TGI [5]: > 100 µM
TGI [6]: > 100 µM
TGI [7]: > 100 µM
TGI [8]: 25.4 µM
TGI [14]: > 100 µM
TGI [9]: > 100 µM
TGI [10]: > 100 µM
TGI [11]: > 100 µM
TGI [12]: > 100 µM
TGI [15]: > 100 µM
TGI [13]: > 100 µM

O=c1[nH]n(Cc2ccccn2)c2ccc([N+](=O)[O-])cc12
TGI [1]: > 100 µM
TGI [4]: > 100 µM
TGI [6]: > 100 µM
TGI [10]: > 100 µM
TGI [12]: > 100 µM
TGI [15]: > 100 µM

O=C1/C(=C/c2ccc(Cl)cc2)N=C(c2ccccc2)N1c1ccc(S(=O)(=O)Nc2nccs2)cc1
TGI [1]: > 100 µM
TGI [4]: > 100 µM
TGI [6]: 75.6 µM
TGI [10]: > 100 µM
TGI [12]: > 100 µM
TGI [15]: > 100 µM

c1ccc(C[n+]2cccc(-c3cc4ccccc4[nH]3)c2)cc1
TGI [1]: 55.2 µM
TGI [4]: 77.8 µM
TGI [6]: 40.5 µM
TGI [10]: > 100 µM
TGI [12]: > 100 µM
TGI [15]: > 100 µM

Clc1nc2n(c1/C=C/c1cccs1)CCS2
TGI [1]: > 100 µM
TGI [4]: > 100 µM
TGI [6]: > 100 µM
TGI [10]: > 100 µM
TGI [12]: > 100 µM
TGI [15]: > 100 µM

N#CCCN(CCN(C(=O)Nc1ccccc1)c1ccccc1)C(=O)Nc1ccccc1
TGI [1]: > 100 µM
TGI [4]: > 92.1 µM
TGI [6]: 34.7 µM
TGI [10]: > 100 µM
TGI [12]: > 100 µM
TGI [15]: > 100 µM

NC(=O)NC(=O)c1cccc(NC(=O)CBr)c1
TGI [1]: 0.549 µM
TGI [4]: 1.49 µM
TGI [6]: < 0.0207 µM
TGI [10]: 3.11 µM
TGI [12]: 6.8 µM
TGI [15]: 0.067 µM

CN(CCCNC(=O)c1nn(-c2ccc(Cl)cc2Cl)c2c1ccc1ccccc12)CCCNC(=O)c1nn(-c2ccc(Cl)cc2Cl)c2c1ccc1ccccc12
TGI [1]: 3.04 µM
TGI [4]: 2.83 µM
TGI [6]: 2.1 µM
TGI [10]: 3.21 µM
TGI [12]: 3.29 µM
TGI [15]: 4.86 µM

NC(=O)c1[nH]cnc1/N=N/SCC(N)C(=O)O (stereo not given)
TGI [1]: > 100 µM
TGI [4]: > 100 µM
TGI [6]: 6.66 µM
TGI [10]: > 100 µM
TGI [12]: > 100 µM
TGI [15]: > 100 µM
